ChEMBL document CHEMBL2412971, “Selective orexin receptor antagonists” (Bioorg Med Chem Lett, 2013)
Blank lines part the entries; values can stand above or below the compound they belong to.

Tests used:
[1] = molecular target: T1, Orexin/Hypocretin receptor type 1 (Homo sapiens, UniProt O43613); test: Antagonist activity at human orexin receptor 1 expressed in CHO cells assessed as inhibition of orexin-A-induced calcium flux by FLIPR assay; assay type: functional, cell-based
T1 sequence (O43613 whole entry): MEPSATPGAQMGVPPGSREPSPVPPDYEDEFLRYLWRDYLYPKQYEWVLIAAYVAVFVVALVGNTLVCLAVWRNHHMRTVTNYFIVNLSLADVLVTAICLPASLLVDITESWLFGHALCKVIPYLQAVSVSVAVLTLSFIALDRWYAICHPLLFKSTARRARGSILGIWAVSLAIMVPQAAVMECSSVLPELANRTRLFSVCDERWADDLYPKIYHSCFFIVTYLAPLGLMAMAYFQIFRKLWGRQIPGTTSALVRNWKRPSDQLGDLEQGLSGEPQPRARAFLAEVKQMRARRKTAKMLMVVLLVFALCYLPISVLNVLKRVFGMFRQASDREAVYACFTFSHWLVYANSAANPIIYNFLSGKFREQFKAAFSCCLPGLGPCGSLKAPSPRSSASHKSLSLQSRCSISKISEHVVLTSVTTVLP

Orexin receptor type 2 [2] = molecular target: T2, Orexin receptor type 2 (Homo sapiens, UniProt O43614); test: Antagonist activity at human orexin receptor 2 expressed in CHO cells assessed as inhibition of orexin-A-induced calcium flux by FLIPR assay; assay type: functional, cell-based
T2 sequence (O43614 whole entry): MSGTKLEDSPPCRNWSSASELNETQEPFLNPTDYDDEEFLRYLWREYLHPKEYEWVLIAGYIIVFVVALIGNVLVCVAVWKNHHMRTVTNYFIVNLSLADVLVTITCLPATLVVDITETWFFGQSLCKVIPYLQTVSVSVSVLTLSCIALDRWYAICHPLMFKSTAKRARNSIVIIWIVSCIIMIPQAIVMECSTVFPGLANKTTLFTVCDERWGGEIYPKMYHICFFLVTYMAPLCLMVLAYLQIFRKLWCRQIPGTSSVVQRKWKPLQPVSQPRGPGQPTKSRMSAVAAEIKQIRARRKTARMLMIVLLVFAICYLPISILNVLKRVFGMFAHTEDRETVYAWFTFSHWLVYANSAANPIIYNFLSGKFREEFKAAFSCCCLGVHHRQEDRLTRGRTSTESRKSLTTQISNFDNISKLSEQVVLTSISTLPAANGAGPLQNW

[3] = molecular target: T1, Orexin/Hypocretin receptor type 1; test: (§1) Binding affinity to orexin receptor 1 (unknown origin)
Orexin receptor type 2 [4] = molecular target: T2, Orexin receptor type 2; test: (§2) Binding affinity to orexin receptor 2 (unknown origin)
[5] = molecular target: T3, Orexin/Hypocretin receptor type 1 (Homo sapiens) (UniProt O43613); test: as §1
T3 sequence (whole entry): T1 sequence (O43613 whole entry)

[6] = molecular target: T4, Orexin receptor type 2 (Homo sapiens) (UniProt O43614); test: as §2
T4 sequence (whole entry): T2 sequence (O43614 whole entry)

[7] = molecular target: Kappa-type opioid receptor (Homo sapiens, UniProt P41145); test: Binding affinity to kappa opioid receptor (unknown origin)
Sequence of Kappa-type opioid receptor (P41145 whole entry): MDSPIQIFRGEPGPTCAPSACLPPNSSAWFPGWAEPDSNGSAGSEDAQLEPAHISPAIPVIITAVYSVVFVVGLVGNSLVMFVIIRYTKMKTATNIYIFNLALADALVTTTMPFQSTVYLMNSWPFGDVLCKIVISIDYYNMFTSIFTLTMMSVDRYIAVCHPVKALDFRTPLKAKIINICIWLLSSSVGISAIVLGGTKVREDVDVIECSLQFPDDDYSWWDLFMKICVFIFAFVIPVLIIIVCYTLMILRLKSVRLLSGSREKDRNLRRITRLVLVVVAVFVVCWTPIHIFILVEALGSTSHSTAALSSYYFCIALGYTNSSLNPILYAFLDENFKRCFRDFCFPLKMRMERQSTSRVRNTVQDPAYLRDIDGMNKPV

[8] = molecular target: T5, 5-hydroxytryptamine receptor 2C (Homo sapiens, UniProt P28335); test: Binding affinity to 5HT2C receptor (unknown origin)
T5 sequence (P28335 whole entry): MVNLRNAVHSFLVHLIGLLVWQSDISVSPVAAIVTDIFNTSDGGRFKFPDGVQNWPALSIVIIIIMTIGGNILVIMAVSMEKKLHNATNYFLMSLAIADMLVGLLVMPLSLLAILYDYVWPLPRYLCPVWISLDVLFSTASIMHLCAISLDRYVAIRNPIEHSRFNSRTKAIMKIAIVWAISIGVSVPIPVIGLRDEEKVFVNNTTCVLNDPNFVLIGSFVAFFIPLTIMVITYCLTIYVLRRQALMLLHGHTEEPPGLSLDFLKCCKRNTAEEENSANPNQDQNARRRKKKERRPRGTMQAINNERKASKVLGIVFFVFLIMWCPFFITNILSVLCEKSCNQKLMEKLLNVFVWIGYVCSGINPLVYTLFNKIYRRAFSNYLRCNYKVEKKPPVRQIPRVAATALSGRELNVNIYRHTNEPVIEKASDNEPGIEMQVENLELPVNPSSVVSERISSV

Adenosine receptor A2a = Adenosine receptor A2a (Homo sapiens, UniProt P29274); test: Binding affinity to adenosine A2A receptor (unknown origin)
Sequence of Adenosine receptor A2a (P29274 whole entry): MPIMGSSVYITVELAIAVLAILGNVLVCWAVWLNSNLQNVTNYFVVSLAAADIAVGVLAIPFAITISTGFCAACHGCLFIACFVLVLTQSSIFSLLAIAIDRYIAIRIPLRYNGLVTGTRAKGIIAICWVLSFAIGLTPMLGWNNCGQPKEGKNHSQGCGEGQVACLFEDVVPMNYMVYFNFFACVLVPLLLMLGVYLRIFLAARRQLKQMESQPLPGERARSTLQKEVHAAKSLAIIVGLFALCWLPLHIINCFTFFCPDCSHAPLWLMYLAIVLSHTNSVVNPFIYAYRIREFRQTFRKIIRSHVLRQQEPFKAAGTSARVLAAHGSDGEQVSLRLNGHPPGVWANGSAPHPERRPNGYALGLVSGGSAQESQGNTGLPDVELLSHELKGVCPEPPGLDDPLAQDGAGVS

D(1A) dopamine receptor = D(1A) dopamine receptor (Homo sapiens, UniProt P21728); test: Binding affinity to dopamine D1 receptor (unknown origin)
Sequence of D(1A) dopamine receptor (P21728 whole entry): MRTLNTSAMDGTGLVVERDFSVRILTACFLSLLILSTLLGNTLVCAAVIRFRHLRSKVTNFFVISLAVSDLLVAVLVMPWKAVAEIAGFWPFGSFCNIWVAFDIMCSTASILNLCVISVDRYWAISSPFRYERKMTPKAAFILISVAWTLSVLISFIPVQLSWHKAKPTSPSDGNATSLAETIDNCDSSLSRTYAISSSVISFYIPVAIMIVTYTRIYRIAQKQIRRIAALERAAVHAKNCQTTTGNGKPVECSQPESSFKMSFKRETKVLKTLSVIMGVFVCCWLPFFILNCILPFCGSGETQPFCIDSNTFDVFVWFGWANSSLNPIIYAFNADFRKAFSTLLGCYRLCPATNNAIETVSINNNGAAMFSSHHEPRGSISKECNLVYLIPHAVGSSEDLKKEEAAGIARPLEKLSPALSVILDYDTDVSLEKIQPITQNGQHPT

[9] = molecular target: 5-hydroxytryptamine receptor 2B (Homo sapiens, UniProt P41595); test: Binding affinity to 5HT2B receptor (unknown origin)
Sequence of 5-hydroxytryptamine receptor 2B (P41595 whole entry): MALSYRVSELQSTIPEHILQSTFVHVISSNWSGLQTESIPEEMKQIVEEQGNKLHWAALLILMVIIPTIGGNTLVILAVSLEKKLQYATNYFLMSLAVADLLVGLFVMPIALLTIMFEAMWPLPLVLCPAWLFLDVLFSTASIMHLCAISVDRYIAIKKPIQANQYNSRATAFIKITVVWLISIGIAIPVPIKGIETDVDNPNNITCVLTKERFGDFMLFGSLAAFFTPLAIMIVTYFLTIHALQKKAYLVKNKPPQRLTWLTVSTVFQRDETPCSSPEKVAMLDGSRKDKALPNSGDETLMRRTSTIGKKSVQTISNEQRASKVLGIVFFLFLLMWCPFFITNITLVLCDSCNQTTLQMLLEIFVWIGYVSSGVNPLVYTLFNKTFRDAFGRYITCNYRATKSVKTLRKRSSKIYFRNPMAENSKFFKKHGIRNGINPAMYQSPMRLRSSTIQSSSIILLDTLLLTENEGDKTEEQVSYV

IC50 [1]: 10 nM | IC50 (Orexin receptor type 2 [2]): 5 nM
SMILES: Cc1cccc(-c2sc(C)nc2C(=O)N2CCC2CNC(=O)c2c(N)nc3sccn23)c1 (racemic)

Ki [3]: 0.5 nM
SMILES: Cc1ccc(-n2nccn2)c(C(=O)N2CCC[C@@H](COc3nccc4ccccc34)[C@@H]2C)c1

Ki [3]: 1.1 nM | Ki (Orexin receptor type 2 [4]): 129 nM
SMILES: [3H]c1cccc([3H])c1-c1nnc(C[C@@H]2CCCN2C(=O)c2nc(C)sc2-c2ccccc2F)o1

Ki [1]: 720 nM
SMILES: Cc1ccc(-n2nccn2)c(C(=O)N2C[C@H](COc3ncccc3C)OC[C@H]2C)c1

Kb [5]: 0.3 nM
SMILES: CCOc1ccc(C)nc1C(=O)N1C[C@@H]2C[C@@H]2C[C@H]1CNc1ncc(C(F)(F)F)cn1

Ki [1]: 2.2 nM
SMILES: Cc1ccc(-n2nccn2)c(C(=O)N2C[C@H](COc3nccc4ccccc34)OC[C@H]2C)c1

IC50 [1]: 998 nM | IC50 (Orexin receptor type 2 [2]): 14 nM
SMILES: CN(Cc1ccccc1)C(=O)Cn1nc(S(=O)(=O)Cc2ccccc2)c2ccccc21

IC50 [1]: 3460 nM | IC50 (Orexin receptor type 2 [2]): 35 nM
SMILES: CN(Cc1ccccc1)C(=O)Cn1cc(S(=O)(=O)Cc2ccccc2)c2ccccc21

Ki [3]: 1 nM
SMILES: Cc1ccc(-n2nccn2)c(C(=O)N2CCC[C@@H](COc3ccccn3)[C@@H]2C)c1

IC50 [1]: 9190 nM | IC50 (Orexin receptor type 2 [2]): 96 nM
SMILES: O=C(Cn1cc(S(=O)(=O)Cc2ccc(F)cc2)c2ccccc21)NCc1ccc(F)cc1

IC50 [1]: 3780 nM | IC50 (Orexin receptor type 2 [2]): 1 nM
SMILES: Cc1c(S(=O)(=O)Cc2ccccc2)c2ccccn2c1CC(=O)N(C)Cc1ccccc1

Ki [3]: 1.1 nM | Ki (Orexin receptor type 2 [4]): 129 nM
SMILES: Cc1nc(C(=O)N2CCC[C@H]2Cc2nnc(-c3ccccc3)o2)c(-c2ccccc2F)s1

IC50 [1]: 2380 nM | IC50 (Orexin receptor type 2 [2]): 0.8 nM
SMILES: Cc1c(S(=O)(=O)Cc2ccccc2)c2ccccn2c1CC(=O)N(C)Cc1ccc(F)cc1

Ki [3]: 0.3 nM
SMILES: Cc1nc(C(=O)N2CCCC[C@H]2CNC(=O)c2cccc3occc23)c(-c2ccc(F)cc2)s1 [SB-649868]

Kb [5]: 1 nM | Kb [6]: 1.3 nM
SMILES: CCCOc1ccc(C)nc1C(=O)N1C[C@@H]2C[C@@H]2C[C@H]1CNc1cnc(C)c(C)n1

Kb [5]: 158 nM | Kb [6]: 158 nM
SMILES: Cc1nc(C(=O)N2CC3(CC3)C[C@H]2CNc2ncc(Cl)cn2)c(-c2ccccc2)s1

IC50 [3]: 6 nM
SMILES: COc1ccc(C[C@H]2c3cc(OC)c(OC)cc3CCN2[C@@H](C(=O)NC(C)C)c2ccccc2)cc1OC

Ki [3]: 1640 nM | Ki (Orexin receptor type 2 [4]): 6 nM
SMILES: CC1(C)OC[C@H](NC(=O)Nc2ccc(Br)cc2Br)[C@H](c2ccccc2)O1

Kd [3]: 3050 nM | Kd (Orexin receptor type 2 [4]): 7 nM
SMILES: CCn1nc(C)cc1C(=O)NCC[C@H](Cc1ccccc1)N(C)C(=O)c1cc(C)ccc1-n1nccn1

Kb [5]: 31.6 nM | Kb [6]: 2.5 nM
SMILES: Cc1cc(C)nc(NC[C@@H]2CC3(CC3)CN2C(=O)c2nc(C)sc2-c2ccccc2)n1

Ki [3]: 36 nM | Ki (Orexin receptor type 2 [4]): > 10000 nM
SMILES: CCN(CC)c1ccc(NC(=O)c2oc3ccccc3c2C)cc1

Kb [5]: 0.6 nM | Kb [6]: 16 nM
SMILES: Cc1ccc(-c2ncccc2C)c(C(=O)N2C[C@@H]3C[C@@H]3C[C@H]2CNc2ncc(C(F)(F)F)cn2)n1

Kb [5]: 0.5 nM | Kb [6]: 4 nM
SMILES: Cc1ccc(NC[C@@H]2C[C@H]3C[C@H]3CN2C(=O)c2nc(C)ccc2OCC2CC2)nc1

Kb [5]: 1.6 nM | Ki [7]: 320 nM | Kb [6]: 126 nM
SMILES: COc1c(F)cccc1C(=O)N1C[C@@H](C)CC[C@H]1CNc1ccc(Br)cn1 (racemic)

Ki [8]: 1200 nM | Ki (Adenosine receptor A2a): 670 nM
SMILES: Cc1nc2ccc(NC(=O)Nc3ccnc4cccnc34)cc2o1

Kb [5]: 0.6 nM | Kb [6]: 0.4 nM
SMILES: Cc1cnn(-c2ccc(C)nc2C(=O)N2C[C@@H]3C[C@@H]3C[C@H]2CNc2ncc(C(F)(F)F)cn2)c1

Ki [1]: 1400 nM | Ki (Orexin receptor type 2 [2]): 18 nM
SMILES: Cc1cc(C)nc(N2CC[C@@H]3CN(C(=O)c4cc(F)ccc4-n4nccn4)[C@H]3C2)n1

IC50 [1]: > 10000 nM | IC50 (Orexin receptor type 2 [2]): 194 nM
SMILES: CN(Cc1ccc(F)cc1)C(=O)Cc1nc(S(=O)(=O)Cc2ccccc2)c2ccccn12

Kb [5]: 0.3 nM | Kb [6]: 63 nM
SMILES: CCCOc1ccc(C)nc1C(=O)N1C[C@@H]2C[C@@H]2C[C@H]1CNc1ncc(C(F)(F)F)cn1

Ki [3]: 8.7 nM | Ki (Orexin receptor type 2 [4]): 503 nM
SMILES: CN(C)c1ccc(NC(=O)Nc2ccnc3c(F)ccc(F)c23)cc1

IC50 [1]: 4360 nM | IC50 (Orexin receptor type 2 [2]): 5 nM
SMILES: CN(Cc1ccc(F)cc1)C(=O)Cn1cc(S(=O)(=O)Cc2ccc(F)cc2)c2ccccc21

Ki (Orexin receptor type 2 [4]): 0.3 nM
SMILES: Cc1ccc(-c2ncccn2)c(C(=O)N2C[C@H](COc3ccc(F)cn3)CC[C@H]2C)c1 [FILOREXANT]

Kb [5]: 0.8 nM | Kb [6]: 100 nM
SMILES: CCOc1ccc(C)nc1C(=O)N1C[C@@H]2C[C@@H]2C[C@H]1CNc1ncc(C)cn1

IC50 [1]: 3100 nM | IC50 (Orexin receptor type 2 [2]): 13 nM
SMILES: Cc1cccc(-c2sc(C)nc2C(=O)N2CCC2CNC(=O)c2cccc3c2OCCN3C)c1 (racemic)

Kb [5]: 5 nM | Kb [6]: 79.4 nM
SMILES: Cc1nc(C(=O)N2CC3(CC3)C[C@H]2CNc2ccc(Cl)cn2)c(-c2ccccc2)s1

Ki [3]: 22 nM | Ki (D(1A) dopamine receptor): 1780 nM | Ki [9]: 320 nM | Ki (Orexin receptor type 2 [4]): 1400 nM
SMILES: Cc1cc(NC(=O)Nc2ccc(N(C)C)cc2)c2cc(F)cc(F)c2n1

Ki [3]: 4360 nM | Ki (Orexin receptor type 2 [4]): 5.7 nM
SMILES: Cc1c(S(=O)(=O)Cc2ccc(F)cc2)c2ccccn2c1CC(=O)N(C)Cc1ccc(F)cc1

Ki (Orexin receptor type 2 [4]): 8 nM
SMILES: CNC(=O)[C@@H](c1ccccc1)N1CCc2cc(OC)c(OC)cc2[C@@H]1CCc1ccc(C(F)(F)F)cc1 [ALMOREXANT]
